According to patent US7517874B2 (priority 2007, dated 2009):
Read-outs that look alike come from different tables or passages of the source.

Key:
rat CB2 receptor (rCB2) = target: T1, rat CB2 receptor (rCB2) (Rattus norvegicus, UniProt Q9QZN9); experiment: cell-based; assay type: cell-based; conditions: for +/− RCB2: agonist or inverse agonist at rCB2
T1 sequence (Q9QZN9 1-360): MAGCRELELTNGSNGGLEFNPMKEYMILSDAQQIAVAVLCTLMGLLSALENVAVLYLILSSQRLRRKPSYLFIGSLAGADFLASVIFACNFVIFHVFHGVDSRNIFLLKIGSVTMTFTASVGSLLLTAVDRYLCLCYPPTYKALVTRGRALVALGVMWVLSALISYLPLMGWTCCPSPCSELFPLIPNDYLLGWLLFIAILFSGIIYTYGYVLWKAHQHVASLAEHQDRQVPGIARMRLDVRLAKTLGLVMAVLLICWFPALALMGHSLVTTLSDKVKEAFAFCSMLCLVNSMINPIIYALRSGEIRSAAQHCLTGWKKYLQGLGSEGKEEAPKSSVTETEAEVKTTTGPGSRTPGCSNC
Method in brief: (§1)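 First, cells in IBMX-containing HEPES-buffered HBSS are raised to elevated cAMP with 2-8 μM NKH-477 for 30 min. Data are normalised to the forskolin and forskolin + 1 μM CP55,940 controls.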

[1] = target: human CB1 receptor (hCB1) (Homo sapiens, UniProt P21554); experiment: cell-based; assay type: cell-based; conditions: for +/− HCB1: agonist or inverse agonist at hCB1
Method in brief: as §1

[2] = groups >100 nM-10 μM and >10 μM, cAMP, CHO-K1 hCB1, read-out: EC50 HCB1

Sequence of human CB1 receptor (hCB1) (P21554 whole entry): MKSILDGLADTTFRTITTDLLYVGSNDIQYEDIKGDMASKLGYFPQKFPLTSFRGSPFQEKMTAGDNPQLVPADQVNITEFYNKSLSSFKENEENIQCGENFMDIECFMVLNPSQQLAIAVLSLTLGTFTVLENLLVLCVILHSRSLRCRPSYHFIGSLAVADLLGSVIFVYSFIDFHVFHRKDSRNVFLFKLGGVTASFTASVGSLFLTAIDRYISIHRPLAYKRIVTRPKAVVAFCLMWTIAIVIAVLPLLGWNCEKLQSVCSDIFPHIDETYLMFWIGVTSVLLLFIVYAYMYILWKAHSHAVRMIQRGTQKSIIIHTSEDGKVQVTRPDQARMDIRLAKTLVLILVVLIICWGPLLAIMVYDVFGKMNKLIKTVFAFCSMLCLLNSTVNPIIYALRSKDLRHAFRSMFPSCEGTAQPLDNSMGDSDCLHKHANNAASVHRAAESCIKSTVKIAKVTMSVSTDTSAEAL

SMILES: CNC(=O)[C@@H](NC(=O)c1nc(CCCN2CCOCC2)n2c1CN(C)CCC2)C(C)(C)C [Compound 500, (S)-N-(3,3-dimethyl-1-(methylamino)-1-oxobutan-2-yl)-8-methyl-3-(3-morpholinopropyl)-6,7,8,9-tetrahydro-5H-imidazo[1,5-a][1,4]diazepine-1-carboxamide]
- EC50 (rat CB2 receptor (rCB2)): > 10 µM
- EC50 [1]: > 10000 nM

SMILES: CNC(=O)[C@@H](NC(=O)c1nc(CCCN2CCCCC2)n2c1CN(C)CCC2)C(C)(C)C [Compound 501, (S)-N-(3,3-dimethyl-1-(methylamino)-1-oxobutan-2-yl)-8-methyl-3-(3-(piperidin-1-yl)propyl)-6,7,8,9-tetrahydro-5H-imidazo[1,5-a][1,4]diazepine-1-carboxamide]
- +/− RCB2 (rat CB2 receptor (rCB2)): +
- EC50 [1]: > 10000 nM

SMILES: CNC(=O)[C@@H](NC(=O)c1nc(CCCN2CCCC2)n2c1CN(C)CCC2)C(C)(C)C [Compound 502, (S)-N-(3,3-dimethyl-1-(methylamino)-1-oxobutan-2-yl)-8-methyl-3-(3-(pyrrolidin-1-yl)propyl)-6,7,8,9-tetrahydro-5H-imidazo[1,5-a][1,4]diazepine-1-carboxamide]
- +/− RCB2 (rat CB2 receptor (rCB2)): +
- EC50 [1]: > 10000 nM

SMILES: CNC(=O)[C@@H](NC(=O)c1nc(C2CCNCC2)n2c1CN(C)CCC2)C(C)(C)C [Compound 503]
- +/− RCB2 (rat CB2 receptor (rCB2)): +
- +/− HCB1 [1]: +

SMILES: CNC(=O)[C@@H](NC(=O)c1nc(C2CCCCO2)n2c1CN(C)CCC2)C(C)(C)C (stereo partly drawn) [Compound 504, N-((S)-3,3-dimethyl-1-(methylamino)-1-oxobutan-2-yl)-8-methyl-3-(tetrahydro-2H-pyran-2-yl)-6,7,8,9-tetrahydro-5H-imidazo[1,5-a][1,4]diazepine-1-carboxamide]
- +/− RCB2 (rat CB2 receptor (rCB2)): +
- EC50 [1]: > 10000 nM

SMILES: CNC(=O)[C@@H](NC(=O)c1nc(C(C)C(F)(F)F)n2c1CN(C)CCC2)C(C)(C)C (stereo partly drawn) [Compound 505, N-((S)-3,3-dimethyl-1-(methylamino)-1-oxobutan-2-yl)-8-methyl-3-(1,1,1-trifluoropropan-2-yl)-6,7,8,9-tetrahydro-5H-imidazo[1,5-a][1,4]diazepine-1-carboxamide]
- +/− RCB2 (rat CB2 receptor (rCB2)): +
- +/− HCB1 [1]: +

SMILES: CNC(=O)[C@@H](NC(=O)c1nc(C(C)c2ccccc2)n2c1CN(C)CCC2)C(C)(C)C (stereo partly drawn) [Compound 506, N-((S)-3,3-dimethyl-1-(methylamino)-1-oxobutan-2-yl)-8-methyl-3-(1-phenylethyl)-6,7,8,9-tetrahydro-5H-imidazo[1,5-a][1,4]diazepine-1-carboxamide]
- +/− RCB2 (rat CB2 receptor (rCB2)): +
- +/− HCB1 [1]: +

SMILES: CNC(=O)[C@@H](NC(=O)c1nc(C(C)C(C)C)n2c1CN(C)CCC2)C(C)(C)C (stereo partly drawn) [Compound 507, N-((S)-3,3-dimethyl-1-(methylamino)-1-oxobutan-2-yl)-8-methyl-3-(3-methylbutan-2-yl)-6,7,8,9-tetrahydro-5H-imidazo[1,5-a][1,4]diazepine-1-carboxamide]
- +/− RCB2 (rat CB2 receptor (rCB2)): +
- +/− HCB1 [1]: +

SMILES: CNC(=O)[C@@H](NC(=O)c1nc(CCCCO)n2c1CN(C)CCC2)C(C)(C)C [Compound 508, (S)-N-(3,3-dimethyl-1-(methylamino)-1-oxobutan-2-yl)-3-(4-hydroxybutyl)-8-methyl-6,7,8,9-tetrahydro-5H-imidazo[1,5-a][1,4]diazepine-1-carboxamide]
- EC50 (rat CB2 receptor (rCB2)): > 10 µM
- +/− HCB1 [1]: +

SMILES: CNC(=O)[C@@H](NC(=O)c1nc(/C=C/CN2CCOCC2)n2c1CN(C)CCC2)C(C)(C)C [Compound 509, (S,E)-N-(3,3-dimethyl-1-(methylamino)-1-oxobutan-2-yl)-8-methyl-3-(3-morpholinoprop-1-enyl)-6,7,8,9-tetrahydro-5H-imidazo[1,5-a][1,4]diazepine-1-carboxamide]
- EC50 (rat CB2 receptor (rCB2)): > 10 µM
- EC50 [1]: > 10000 nM

SMILES: CNC(=O)[C@@H](NC(=O)c1nc(/C=C/CN2CCCCC2)n2c1CN(C)CCC2)C(C)(C)C [Compound 510, (S,E)-N-(3,3-dimethyl-1-(methylamino)-1-oxobutan-2-yl)-8-methyl-3-(3-(piperidin-1-yl)prop-1-enyl)-6,7,8,9-tetrahydro-5H-imidazo[1,5-a][1,4]diazepine-1-carboxamide]
- +/− RCB2 (rat CB2 receptor (rCB2)): +
- EC50 [1]: > 10000 nM

SMILES: CNC(=O)[C@@H](NC(=O)c1nc(/C=C/CN2CCCC2)n2c1CN(C)CCC2)C(C)(C)C [Compound 511, (S,E)-N-(3,3-dimethyl-1-(methylamino)-1-oxobutan-2-yl)-8-methyl-3-(3-(pyrrolidin-1-yl)prop-1-enyl)-6,7,8,9-tetrahydro-5H-imidazo[1,5-a][1,4]diazepine-1-carboxamide]
- +/− RCB2 (rat CB2 receptor (rCB2)): +
- EC50 [1]: > 10000 nM

SMILES: CCN(CC)C/C=C/c1nc(C(=O)N[C@H](C(=O)NC)C(C)(C)C)c2n1CCCN(C)C2 [Compound 512, (S,E)-3-(3-(diethylamino)prop-1-enyl)-N-(3,3-dimethyl-1-(methylamino)-1-oxobutan-2-yl)-8-methyl-6,7,8,9-tetrahydro-5H-imidazo[1,5-a][1,4]diazepine-1-carboxamide]
- EC50 (rat CB2 receptor (rCB2)): > 10 µM
- EC50 [1]: > 10000 nM

SMILES: CNC(=O)[C@@H](NC(=O)c1nc(/C=C/CN(C)C)n2c1CN(C)CCC2)C(C)(C)C [Compound 513, (S,E)-N-(3,3-dimethyl-1-(methylamino)-1-oxobutan-2-yl)-3-(3-(dimethylamino)prop-1-enyl)-8-methyl-6,7,8,9-tetrahydro-5H-imidazo[1,5-a][1,4]diazepine-1-carboxamide]
- +/− RCB2 (rat CB2 receptor (rCB2)): −
- EC50 [1]: > 10000 nM

SMILES: CNC(=O)[C@@H](NC(=O)c1nc(/C=C/CCO)n2c1CN(C)CCC2)C(C)(C)C [Compound 514, (S,E)-N-(3,3-dimethyl-1-(methylamino)-1-oxobutan-2-yl)-3-(4-hydroxybut-1-enyl)-8-methyl-6,7,8,9-tetrahydro-5H-imidazo[1,5-a][1,4]diazepine-1-carboxamide]
- +/− RCB2 (rat CB2 receptor (rCB2)): +
- +/− HCB1 [1]: +

SMILES: CC(C)(C)OC(=O)N1CCCn2c(-c3ccccc3)nc(C(=O)N[C@H](C(=O)O)C(C)(C)C)c2C1 [Compound 515, (S)-2-(8-(tert-butoxycarbonyl)-3-phenyl-6,7,8,9-tetrahydro-5H-imidazo[1,5-a][1,4]diazepine-1-carboxamido)-3,3-dimethylbutanoic acid]
- +/− RCB2 (rat CB2 receptor (rCB2)): −
- EC50 [1, 2]: > 10000 nM

SMILES: Cc1ccc(-c2nc(C(=O)N[C@H](C(=O)O)C(C)(C)C)c3n2CCCN(C(=O)OC(C)(C)C)C3)c(F)c1 [Compound 516, (S)-2-(8-(tert-butoxycarbonyl)-3-(2-fluoro-4-methylphenyl)-6,7,8,9-tetrahydro-5H-imidazo[1,5-a][1,4]diazepine-1-carboxamido)-3,3-dimethylbutanoic acid]
- +/− RCB2 (rat CB2 receptor (rCB2)): −
- EC50 [1]: > 10000 nM

SMILES: Cc1noc([C@@H](NC(=O)c2nc(-c3ccccc3)n3c2CN(C(=O)OC(C)(C)C)CCC3)C(C)(C)C)n1 [Compound 517, (S)-tert-butyl 1-(2,2-dimethyl-1-(3-methyl-1,2,4-oxadiazol-5-yl)propylcarbamoyl)-3-phenyl-6,7-dihydro-5H-imidazo[1,5-a][1,4]diazepine-8(9H)-carboxylate]
- +/− RCB2 (rat CB2 receptor (rCB2)): −
- EC50 [1, 2]: > 10000 nM

SMILES: Cc1ccc(-c2nc(C(=O)N[C@H](c3nc(C)no3)C(C)(C)C)c3n2CCCN(C(=O)OC(C)(C)C)C3)c(F)c1 [Compound 518, (S)-tert-butyl 1-(2,2-dimethyl-1-(3-methyl-1,2,4-oxadiazol-5-yl)propylcarbamoyl)-3-(2-fluoro-4-methylphenyl)-6,7-dihydro-5H-imidazo[1,5-a][1,4]diazepine-8(9H)-carboxylate]
- +/− RCB2 (rat CB2 receptor (rCB2)): −
- EC50 [1]: > 10000 nM

SMILES: Cc1noc([C@@H](NC(=O)c2nc(-c3ccccc3)n3c2CNCCC3)C(C)(C)C)n1 [Compound 519, (S)-N-(2,2-dimethyl-1-(3-methyl-1,2,4-oxadiazol-5-yl)propyl)-3-phenyl-6,7,8,9-tetrahydro-5H-imidazo[1,5-a][1,4]diazepine-1-carboxamide]
- +/− RCB2 (rat CB2 receptor (rCB2)): +
- EC50 [1]: > 10000 nM

SMILES: Cc1ccc(-c2nc(C(=O)N[C@H](c3nc(C)no3)C(C)(C)C)c3n2CCCNC3)c(F)c1 [Compound 520, (S)-N-(2,2-dimethyl-1-(3-methyl-1,2,4-oxadiazol-5-yl)propyl)-3-(2-fluoro-4-methylphenyl)-6,7,8,9-tetrahydro-5H-imidazo[1,5-a][1,4]diazepine-1-carboxamide]
- +/− RCB2 (rat CB2 receptor (rCB2)): −
- EC50 [1]: > 10000 nM

SMILES: Cc1noc([C@@H](NC(=O)c2nc(-c3ccccc3)n3c2CN(C)CCC3)C(C)(C)C)n1 [Compound 521, (S)-N-(2,2-dimethyl-1-(3-methyl-1,2,4-oxadiazol-5-yl)propyl)-8-methyl-3-phenyl-6,7,8,9-tetrahydro-5H-imidazo[1,5-a][1,4]diazepine-1-carboxamide]
- +/− RCB2 (rat CB2 receptor (rCB2)): +
- EC50 [1]: > 10000 nM

SMILES: Cc1ccc(-c2nc(C(=O)N[C@H](c3nc(C)no3)C(C)(C)C)c3n2CCCN(C)C3)c(F)c1 [Compound 522, (S)-N-(2,2-dimethyl-1-(3-methyl-1,2,4-oxadiazol-5-yl)propyl)-3-(2-fluoro-4-methylphenyl)-8-methyl-6,7,8,9-tetrahydro-5H-imidazo[1,5-a][1,4]diazepine-1-carboxamide]
- +/− RCB2 (rat CB2 receptor (rCB2)): −
- EC50 [1]: > 10000 nM

SMILES: Cc1ccc(-c2nc(C(=O)N[C@H](c3nc(C)no3)C(C)(C)C)c3n2CCCN(C(C)C)C3)c(F)c1 [Compound 523, (S)-N-(2,2-dimethyl-1-(3-methyl-1,2,4-oxadiazol-5-yl)propyl)-3-(2-fluoro-4-methylphenyl)-8-isopropyl-6,7,8,9-tetrahydro-5H-imidazo[1,5-a][1,4]diazepine-1-carboxamide]
- +/− RCB2 (rat CB2 receptor (rCB2)): −
- EC50 [1]: > 10000 nM
